Measurements taken from patent US12010993B2, “Granular agricultural compositions” (OMS Investments, Inc., priority 2020, dated 2024).

Assays:
perennial ryegrass = experiment: Turfgrass greening vs commercial greening products, perennial ryegrass, Table 33; format: in vivo
Procedure: (§1) To further explain the positive greening response of Formulation 2, two additional trials were conducted on Kentucky bluegrass and perennial ryegrass. The additional trials compared Formulations 2 and 5 with other commercial greening products at equivalent nitrogen rates to better understand the speed of the greening response as well as the darkness of the greening response. Application rates are described in Table 31. The commercial greening products include Green Max™ Lawn Food and Turf Builder® Lawn Food available from the Scotts Company LLC (Marysville, OH). Urea was also evaluated.
(§2) For each trial, preceding application, mowing was withheld for 24 to 48 hours to ensure sufficient leaf area was present for formulation absorption. The experimental unit for turfgrass color response testing was a 3′×3′ plot. The research area for turfgrass color response contained minimal weed pressure so that product impact could be accurately and consistently assessed. Plots were separated on each side by a 2 ft. untreated buffer strip.
(§3) Formulations 2 and 5 were applied early in the morning to dew-laden turf. Green Max™ Lawn Food, Turf Builder® Lawn Food, and urea were all applied to dry turf once the morning dew had dissipated. All treatments were applied using a shaker jar and spreader box to ensure even particle coverage over the plot. Treatments applied to dry turf were watered in immediately after application with 0.18″ of water and wet-foliage applied treatments remained on the leaf surface for 24 hours prior to being watered in with 0.18″ of water. This trial design allowed for comparative evaluation of the response of turf to foliar nitrogen and iron compared to foliar nitrogen; soil applied nitrogen; and soil applied nitrogen and iron at two different rates of iron application. Turfgrass color was rated visually using the National Turfgrass Evaluation Program color rating scale (1-9). Treatments were rated for color 3 and 6 hours after application, and then 1, 3, 7, 14, and 20 days after application. Table 32 depicts testing of Kentucky bluegrass while Table 33 depicts testing of Perennial ryegrass.

Kentucky bluegrass = experiment: Turfgrass greening vs commercial greening products, Kentucky bluegrass, Table 32; format: in vivo
Procedure: as §1, §2, §3

NC(N)=O [Urea]
Turf Color (1-9) (perennial ryegrass; 1 D after initial application): 3.50 | Turf Color (1-9) (perennial ryegrass; 3 D after initial application): 3.13 | Turf Color (1-9) (perennial ryegrass; 7 D after initial application): 4.63 | Turf Color (1-9) (perennial ryegrass; 14 D after initial application): 4.88 | Turf Color (1-9) (perennial ryegrass; 20 D after initial application): 6.13 | Turf Color (1-9) (perennial ryegrass; 3 hr after initial application): 3.13 | Turf Color (1-9) (perennial ryegrass; 6 hr after initial application): 3.50 | Turf Color (1-9) (Kentucky bluegrass; 1 D after initial application): 3.88 | Turf Color (1-9) (Kentucky bluegrass; 3 D after initial application): 4.00 | Turf Color (1-9) (Kentucky bluegrass; 7 D after initial application): 4.63 | Turf Color (1-9) (Kentucky bluegrass; 14 D after initial application): 5.25 | Turf Color (1-9) (Kentucky bluegrass; 20 D after initial application): 6.25 | Turf Color (1-9) (Kentucky bluegrass; 3 hr after initial application): 3.75 | Turf Color (1-9) (Kentucky bluegrass; 6 hr after initial application): 3.75
